A word on the solubility (kinetic): it is the concentration staying in solution when a stock, usually in DMSO, is diluted into the medium.

The structures appear in SMILES notation. Values after ≈ are worked out from the molar mass of the structure shown.

For this data set the following is noted: buffer; pH 7.4; 200.0 µM.
`COc1ccc(CNC(=O)CC2(CC(=O)O)CCCCC2)cc1`: the kinetic solubility is greater than 47.9 µg/mL.
The same measure for `COc1cnc(-c2ccccn2)nc1N(C)c1ccccc1`: 39.7 µg/mL (≈ 136 µM).
The same measure for `CCNC(=S)Nc1cccc(S(=O)(=O)NC2=NCCC2)c1`: 37.9 µg/mL (≈ 116 µM); for `O=C(OCc1cncs1)c1ccccc1`: greater than 32.9 µg/mL.
The same measure for `O=C(C1CC(=O)N(c2ccc(F)cc2)C1)N1CCCCCC1` (configuration not stated): greater than 45.7 µg/mL; for `CNC(=O)CSc1nc2cccnc2n1-c1ccc(F)cc1`: 44.7 µg/mL (≈ 141 µM); for `CC1(c2ccccc2)NC(=O)N(CC(=O)Nc2ccc(N3CCOCC3)cc2)C1=O` (configuration not stated): 27.6 µg/mL (≈ 67.6 µM).
For `Cc1c(C=O)c2ccccc2n1Cc1ccccc1F`, the solubility (kinetic) came to 20.4 µg/mL (≈ 76.3 µM).
The same measure for `CCOC(=O)CCCNC(=O)COC(=O)c1cccc(F)c1`: 44.4 µg/mL (≈ 143 µM); for `Cc1csc(SCC(=O)Nc2ccc(F)cc2Cl)n1`: greater than 47.5 µg/mL; for `CCOC(=O)C1=C(CCl)NC(=O)NC1c1ccc2c(c1)OCO2` (configuration not stated): greater than 50.8 µg/mL.
Turning to `COc1cc(OC)c(C2C(C#N)=C(C)NC(C)=C2C#N)c(C(=O)O)c1`, the kinetic solubility was greater than 50.9 µg/mL.
Then `CCC(=O)Nc1ccc(NC(=S)NC(=O)/C=C/c2ccco2)cc1`, with 3 µg/mL (≈ 8.74 µM); and `COc1ccc(Cl)cc1N1C(=N)SCC1=O`, with greater than 38.5 µg/mL.
The compound `Cc1ccc(S(=O)(=O)NCC(=O)OCC(=O)Nc2ccc(C)c(S(=O)(=O)N3CCOCC3)c2)cc1` had a solubility (kinetic) greater than 78.8 µg/mL.
The same measure for `CCC(C)(C)NC(=O)C1CCCN1C(=O)NC1CCCCC1` (configuration not stated): greater than 46.4 µg/mL.
Then `Cc1cc(OCC(O)CN2CCCC2)ccc1C(C)C.Cl` (configuration not stated), with 39.1 µg/mL; and `CC(C)c1ccc(NC(=O)CN2C(=O)NC3(CCCCCCC3)C2=O)cc1`, with 16.4 µg/mL (≈ 44.1 µM); and `CCN(CC)Cc1ccc(OC)c(Cl)c1.Cl`, with greater than 39.6 µg/mL.
Then `COCCN(CC(=O)Nc1cccc(C)c1C)C(=O)c1oc2ccccc2c1C`, with 7.4 µg/mL (≈ 18.8 µM); and `NC(=O)COC(=O)c1ccc2c(c1)C(=O)N(Cc1ccco1)C2=O`, with greater than 49.2 µg/mL.
Compound `Cc1c(O)ccc(C(=O)CN2CCN(c3ccccc3)CC2)c1O` gave a kinetic solubility of 12 µg/mL (≈ 36.8 µM).
The same measure for `Nc1nc2c(F)c(F)c(F)cc2s1`: 21.7 µg/mL (≈ 106 µM); for `O=C(CCN1C(=O)c2ccncc2C1=O)Nc1cc(F)ccc1F`: 41.7 µg/mL (≈ 126 µM).
Then `O=[N+]([O-])c1ccc(-c2nc(C(Cl)Cl)c3ccccc3n2)cc1`, with 0.5 µg/mL (≈ 1.5 µM).
Then `O=C(Nc1ccc(O)cc1)/C(=C\C=C\c1ccccc1)NC(=O)c1ccccc1`, with 14.9 µg/mL (≈ 38.8 µM).
For the compound `S=C(c1c[nH]c2ccccc12)N1CCOCC1`, the solubility (kinetic) is greater than 36.9 µg/mL.
The same measure for `Cc1cccc(C(=O)Nc2sc3c(c2C(=O)O)CCCC3)c1`: 6.9 µg/mL (≈ 21.9 µM).
The same measure for `O=C(NC1=NCCS1)c1cccc(F)c1`: greater than 33.6 µg/mL; for `CC(C)[C@H](NS(=O)(=O)c1ccccc1)C(=O)Nc1nccs1`: 7.2 µg/mL (≈ 21.2 µM); for `Cc1ccc(OCCCCN2CCc3ccccc3C2)c(C)c1.Cl`: 4.8 µg/mL.
Then `CNC(=O)CSc1nccn1Cc1ccc(Cl)cc1`, with greater than 44.4 µg/mL; and `CCCCOc1ccc(C2(C)NC(=O)NC2=O)cc1` (configuration not stated), with 31.2 µg/mL (≈ 119 µM); and `Cc1nc(N2CCCCC2)sc1C=O`, with greater than 31.5 µg/mL.
`CCC1=C([N+](=O)[O-])C(c2ccc3c(c2)OCO3)NC(=O)N1` (configuration not stated) registered a kinetic solubility greater than 43.7 µg/mL.
The same measure for `Cc1cccc(Cl)c1OCCCn1ccnc1.O=C(O)C(=O)O`: 45.4 µg/mL.
Then `Cc1ccc(CN(Cc2ccco2)C(=O)c2ccco2)cc1`, with 35.4 µg/mL (≈ 120 µM).
The same measure for `CC1CCc2sc3ncnc(N4CCN(C)CC4)c3c2C1` (configuration not stated): greater than 45.4 µg/mL; for `COc1ccccc1NC(=O)N1CCOCC1`: greater than 35.4 µg/mL; for `C=CCNC(=O)C1CCN(S(=O)(=O)c2cccs2)CC1`: greater than 47.2 µg/mL.
The compound `Cc1ccc(NC(=O)c2nsc(Cl)c2Cl)cc1` had a solubility (kinetic) of less than 0.3 µg/mL.
Then `O=c1[nH]c(-c2ccccc2)ncc1Oc1ccccc1`, with 33.7 µg/mL (≈ 128 µM).
The same measure for `Cn1c(N)nc2ccccc2c1=O`: 21.9 µg/mL (≈ 125 µM); for `COc1ccc(Cc2c([O-])[nH]c(=O)[nH]c2=O)c(OC)c1.[NH4+]`: 43.1 µg/mL.
Then `Cc1cc(/C(N)=N/OC(=O)c2ccccc2Cl)no1`, with greater than 42 µg/mL; and `CCOC(=O)C(=CNc1ccc(C(F)(F)F)cc1)C(=O)OCC`, with 2.7 µg/mL (≈ 8.15 µM).
Turning to `COc1ccc2c(c1)c(C(=O)O)c(C)n2-c1ccc(Cl)cc1`, the kinetic solubility was 15.2 µg/mL (≈ 48.1 µM).
The same measure for `FC(F)(F)c1cccnc1Oc1ccc(C2=NCCS2)cc1`: 0.6 µg/mL (≈ 1.85 µM); for `CCc1ccc(N2CN(CCc3ccccc3)CNC2=S)cc1`: 1.6 µg/mL (≈ 4.92 µM); for `Cc1cccc(OCC(=O)O/N=C(\N)c2ccncc2)c1`: greater than 42.8 µg/mL.
The same measure for `Cc1ccc(C)c(OCC(=O)Nc2ccccc2N2CCCC2)c1`: 1.3 µg/mL (≈ 4.01 µM).
Then `CCc1nc(SCC(=O)NC2CC2)c2c(C)c(C)sc2n1`, with 2.5 µg/mL (≈ 7.78 µM).

(Values after PubChem BioAssay AID1996.)
